Results: patent publication US20220274980A1, “PHARMACOLOGICAL INHIBITORS OF THE ENL YEATS DOMAIN” (priority 2019, published 2022)

Experiments:
[1] = target: T1, ENL YEATS domain (association with H3K27cr) (Homo sapiens, UniProt Q03111); assay: biochemical; conditions: ENL (YEATS)-H3K27cr HTRF (IC50, μM)
T1 sequence (Q03111 1-148): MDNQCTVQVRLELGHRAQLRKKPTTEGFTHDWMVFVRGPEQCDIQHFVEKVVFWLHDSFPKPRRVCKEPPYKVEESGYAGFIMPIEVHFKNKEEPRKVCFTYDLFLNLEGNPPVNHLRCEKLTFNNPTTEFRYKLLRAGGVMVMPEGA

[2] = Half-life in human liver microsomes; format: in vitro ADME
[3] = Half-life in mouse liver microsomes; format: in vitro ADME
ENL(YEATS)-HiBiT = target: T2, ENL(YEATS)-HiBiT (Homo sapiens, UniProt Q03111); assay: cell-based
T2 sequence (Q03111 1-138 limits assumed): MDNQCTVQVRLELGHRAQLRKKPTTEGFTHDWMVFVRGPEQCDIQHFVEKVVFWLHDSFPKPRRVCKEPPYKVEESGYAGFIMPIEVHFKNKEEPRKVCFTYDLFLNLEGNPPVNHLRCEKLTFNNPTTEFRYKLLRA

ENL protein = target: T3, ENL protein (Homo sapiens, UniProt Q03111); assay: ENL immunoblot CETSA on endogenous ENL in OCI/AML-2 cells; format: cell-based; conditions: 10 μM
T3 construct: performed on endogenous ENL protein by treating wild-type OCI-AML-2 cells with drug; endogenous in cells; host or cells: OCI/AML-2
T3 sequence (Q03111 1-559): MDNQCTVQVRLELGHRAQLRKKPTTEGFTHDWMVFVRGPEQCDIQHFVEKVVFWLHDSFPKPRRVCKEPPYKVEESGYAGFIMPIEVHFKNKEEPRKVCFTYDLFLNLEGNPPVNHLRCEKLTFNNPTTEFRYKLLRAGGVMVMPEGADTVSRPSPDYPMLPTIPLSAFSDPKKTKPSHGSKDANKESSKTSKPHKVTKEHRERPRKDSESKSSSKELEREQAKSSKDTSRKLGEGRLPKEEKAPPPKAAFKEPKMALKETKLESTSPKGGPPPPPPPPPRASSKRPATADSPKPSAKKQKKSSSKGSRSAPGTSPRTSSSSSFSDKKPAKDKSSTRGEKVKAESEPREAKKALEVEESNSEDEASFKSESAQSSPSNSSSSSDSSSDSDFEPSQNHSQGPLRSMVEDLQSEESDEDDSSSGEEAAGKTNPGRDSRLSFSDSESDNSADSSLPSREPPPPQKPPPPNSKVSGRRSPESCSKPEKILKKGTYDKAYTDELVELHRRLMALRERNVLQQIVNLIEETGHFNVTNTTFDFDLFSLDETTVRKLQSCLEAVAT
Description: Cellular thermal shift assay (CETSA). […] Briefly, cells were treated with drug, washed with PBS, heated to various temperatures in a thermocycler, cooled to room temperature, lysed by three rounds of freeze-thaw, and then clarified lystaes were subjected to immunoblot analysis.

MV4; 11 cells = assay: MV4;11 proliferation assay (total viable cell count); format: cell-based; conditions: listed as Compound of Formula 69
Description: Proliferation assay. MV4; 11 cells were seeded at 20,000 cells/well in 96-well plates and treated with vehicle or drug, counted and reseeded at 20,000 cells/well every 3-4 days with freshly added vehicle or drug.

[4] = read-out: t1/2 (min) human liver microsomes
[5] = read-out: t1/2 (min) mouse liver microsomes
[6] = without NADPH, read-out: t1/2 mouse (min liver microsomes (without NADPH))

| SMILES | IC50 ([1]; Table 1) | IC50 ([1]; Table 2) | half-life [2, 4] | half-life [3, 5] | IC50 (ENL(YEATS)-HiBiT) | half-life [3, 6] | half-life ([2]; without NADPH, read-out: t1/2 (min) human liver microsomes (without NADPH)) | stabilization of ENL protein, immunoblot analysis of CETSA (ENL protein) | inhibition of MV4:11 proliferation, total viable cell count (MV4; 11 cells) |
| --- | --- | --- | --- | --- | --- | --- | --- | --- | --- |
| O=C(CCN1CCNCC1)Nc1cccc(-c2cn3cc(C(=O)NC4CCC4)ccc3n2)c1 [Compound 114] | 0.261 µM | 0.261 µM | 2960 min | 323 min | 4500 nM | – | – | – | – |
| O=C(NC1CCC1)c1ccc2nc(-c3cccc(NS(=O)(=O)NCCN4CCCCC4=O)c3)cn2c1 [Compound 95] | 0.21 µM | 0.21 µM | – | 6.07 min | 1050 nM | 504 min | – | – | – |
| O=C(CCN1CCCCC1)Nc1cccc(-c2cn3cc(C(=O)NC4CCC4)ccc3n2)c1 [Compound 102] | 0.478 µM | 0.478 µM | – | 34.1 min | 536 nM | 138 min | – | – | – |
| O=C(NC1CCC1)c1ccc2nc(-c3cccc(NS(=O)(=O)CCCN4CCCCC4)c3)cn2c1 [Compound 104] | 0.134 µM | 0.134 µM | – | 14.5 min | 1030 nM | – | – | – | – |
| O=C(CN1CCCCC1)Nc1cccc(-c2cn3cc(C(=O)NC4CCC4)ccc3n2)c1 [Compound 112] | 0.172 µM | 0.172 µM | – | 6.16 min | 1070 nM | – | – | – | – |
| O=C(CCN1CCCCC1=O)Nc1cccc(-c2cn3cc(C(=O)NC4CCC4)ccc3n2)c1 [Compound 109] | 0.265 µM | 0.265 µM | – | 3.46 min | 8130 nM | – | – | – | – |
| O=C(NCCN1CCCCC1)c1cccc(-c2cn3cc(C(=O)NC4CCC4)ccc3n2)c1 [Compound 108] | 0.124 µM | 0.124 µM | 23.8 min | 28 min | 630 nM | – | 537 min | – | – |
| COC1CCN(CCNS(=O)(=O)Nc2cccc(-c3cn4cc(C(=O)NC5CCC5)ccc4n3)c2)CC1 [Compound 94] | 0.197 µM | 0.197 µM | – | 5.23 min | 1520 nM | 774 min | – | – | – |
| O=C(NC1CCC1)c1ccc2nc(-c3cccc(NS(=O)(=O)NCCc4c[nH]cn4)c3)cn2c1 [Compound 69, 2-(3-((N-(2-(1H-imidazol-4-yl)ethyl)sulfamoyl)amino)phenyl)-N-cyclobutylimidazo[1,2-a]pyridine-6-carboxamide] | 0.1 µM | 0.1 µM | – | – | 8400 nM | – | – | stabilization of ENL protein | Inhibition of MV4:11 proliferations |
| O=C(NC1CCC1)c1ccc2nc(-c3cccc(S(=O)(=O)NCCN4CCCCC4)c3)cn2c1 [Compound 107] | 0.635 µM | 0.635 µM | – | 6.15 min | 2020 nM | – | – | – | – |
| CC1CCN(CCNS(=O)(=O)Nc2cccc(-c3cn4cc(C(=O)NC5CCC5)ccc4n3)c2)CC1 [Compound 100] | 0.029 µM | 0.029 µM | – | 4.04 min | 238 nM | 463 min | – | – | – |
| O=C(NC1CCC1)c1ccc2nc(-c3cccc(S(=O)(=O)NCCCN4CCCCC4)c3)cn2c1 [Compound 105] | 0.84 µM | 0.84 µM | – | 9.7 min | 3240 nM | – | – | – | – |
| O=C(NCCN1CCCCC1)Nc1cccc(-c2cn3cc(C(=O)NC4CCC4)ccc3n2)c1 [Compound 113] | 0.153 µM | 0.153 µM | 104 min | 85.9 min | 2630 nM | – | – | – | – |
| O=C(CCN1CCOCC1)Nc1cccc(-c2cn3cc(C(=O)NC4CCC4)ccc3n2)c1 [Compound 110] | 0.306 µM | 0.306 µM | – | 19.9 min | 5010 nM | – | – | – | – |
